Test results as given in patent US12478628B2, “Germ cell nuclear factor ligands and methods of use thereof” (Saint Louis University, priority 2020, dated 2025).
Substitutions are numbered along the chain they refer to.

Columns and labels:
Type in all cases: binding
RXRα LBD = biological target: T1, RXRα LBD (Homo sapiens, UniProt P19793); test: DSF specificity assay, RXRα
T1 construct: human RXRα LBD (residues 223-462); hexahistidine tag with 3C protease site; made in house; host or cells: E. coli BL(21) DE3
T1 sequence (P19793 223-462): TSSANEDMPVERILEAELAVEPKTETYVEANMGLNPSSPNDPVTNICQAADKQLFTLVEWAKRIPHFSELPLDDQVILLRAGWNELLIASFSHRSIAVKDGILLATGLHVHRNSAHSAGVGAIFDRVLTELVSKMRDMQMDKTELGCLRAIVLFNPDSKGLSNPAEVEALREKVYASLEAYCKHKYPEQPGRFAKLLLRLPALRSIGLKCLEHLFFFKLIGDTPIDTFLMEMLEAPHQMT
Method: (§1) Protein Expression and Purification. Human GCNF (NR6A1) LBD (residues 248-480) and mutants F284A/F361A, human LRH-1 (NR5A2) LBD (residues 291-541), human RXRα LBD (residues 223-462), human COUP-TF I LBD (residues 184-410) and human SF-1 LBD (residues 219-461) were subcloned in pET45b(+) plasmid (Novagen) were expressed in E. coli BL(21) DE3 cells in terrific broth with 0.1 mg/mL ampicillin as 3C protease-cleavable hexahistidine-tagged fusion proteins. The bacterial culture was grown at 37° C. to an optical density of 0.8 to 1.0 at 600 nm. Protein expression was induced by adding 1 mM IPTG and was allowed to proceed for 14 h at 22° C. […]
(§2) DSF Assay. […] A total of 450 compounds (Life Chemicals) previously selected from a nuclear-receptor-biased library targeting REV-ERB were analyzed. Thermal stability was assessed on a Quantstudio 6 instrument (Biosystems) by ramping the temperature from 25° C. to 95° C. at 0.05° C./s and protein melt shifts were subsequently quantified by Boltzmann-derived melting temperature (Tm) using the Protein Thermal Shift (ThermoFisher) software. […]

GCNF LBD F284A = biological target: T2, GCNF LBD F284A (Homo sapiens, UniProt Q15406, F284A); test: DSF of GCNF LBD mutant F284A; conditions: 20 μM ligand
T2 construct: Human GCNF (NR6A1) LBD (residues 248-480) and mutants F284A/F361A; hexahistidine tag with 3C protease site; made in house; host or cells: E. coli BL(21) DE3
T2 sequence (Q15406 248-480 F284A): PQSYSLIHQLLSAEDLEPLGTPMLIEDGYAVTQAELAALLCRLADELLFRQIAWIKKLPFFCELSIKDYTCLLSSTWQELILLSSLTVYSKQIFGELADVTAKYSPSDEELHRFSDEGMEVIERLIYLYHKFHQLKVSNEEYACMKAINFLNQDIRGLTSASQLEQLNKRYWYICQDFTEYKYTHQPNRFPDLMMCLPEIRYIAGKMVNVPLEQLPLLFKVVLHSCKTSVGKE
Method: as §1, §2

GCNF LBD = biological target: T3, GCNF LBD (Homo sapiens, UniProt Q15406); test: Differential scanning fluorimetry (DSF) of GCNF LBD; conditions: 20 μM ligand; GCNF LBD Tm 41.9±0.6° C.; significance cutoff 2° C.; read-out: increase of melting temperature (ΔTm) of GCNF LBD
T3 construct: Human GCNF (NR6A1) LBD (residues 248-480); made in house; host or cells: E. coli BL(21) DE3
T3 sequence (Q15406 248-480): T2 sequence (Q15406 248-480 F284A) with A37F
Method: DSF Assay. GCNF LBD (5 μM) were mixed with 1× Sypro orange (Invitrogen) in DSF buffer (50 mM HEPES, 50 mM KCl, 5 mM TCEP, 0.5 mM EDTA, pH 7.5). Test compounds was added at 1:1 molar equivalence as protein or replaced with DMSO control. Ten microliters (10 μL)×5 replicates for each sample were plated on 384-well PCR microplate. No protein control and no ligand references were also run simultaneously in 5 replicates on the same plate. A total of 450 compounds (Life Chemicals) previously selected from a nuclear-receptor-biased library targeting REV-ERB were analyzed. Thermal stability was assessed on a Quantstudio 6 instrument (Biosystems) by ramping the temperature from 25° C. to 95° C. at 0.05° C./s and protein melt shifts were subsequently quantified by Boltzmann-derived melting temperature (Tm) using the Protein Thermal Shift (ThermoFisher) software. Positive hits were identified when a thermal shift (ΔTm) of at least 2° C. was observed.
For the DSF ligand titration assay, ligands 30, 34 and 80 were titrated against 5 μM GCNF LBD with a ligand concentration series of 30, 20, 13, 9, 6, 4, 2.6, 1.7 and 0 μM from a 20 mM DMSO stock solution. DSF assay and analysis was then performed as described above. All DSF data were reported as mean±SEM.

SMILES | change of Tm of RXRα LBD (RXRα LBD) | effect of mutation F284A on ΔTm compared to WT (GCNF LBD F284A) | ΔTm at 20 µM (GCNF LBD) [°C]
Cc1ccc(-n2ncc3c(N4CCOCC4)nc(NCc4ccco4)nc32)cc1 [Ligand 34, N-[(furan-2-yl)methyl]-1-(4-methylphenyl)-4-(morpholin-4-yl)-1H-pyrazolo[3,4-d]pyrimidin-6-amine] | did not significantly change | substantially decreased the ΔTm | –
O=C(Cn1cc(S(=O)(=O)c2ccccc2)c2ccccc21)N1CCc2ccccc21 [Ligand 80, 2-[3-(benzenesulfonyl)-1H-indol-1-yl]-1-(2,3-dihydro-1H-indol-1-yl)ethan-1-one] | did not significantly change | no substantial effect | > 2
